Results taken from PMC6332334, “3-H-[1,2]Dithiole as a New Anti-Trypanosoma cruzi Chemotype: Biological and Mechanism of Action Studies” (Molecules, 2015).

Key:
[1] = system: J774.1 murine macrophages; assay: Unspecific in vitro cytotoxicity of mammalian cells (MTT); format: cell-based; details: Mus musculus, 48 h exposure, read-out: IC50 against Macrophages
Method: To evaluate the anti-trypanosomal activity of the synthesized 3H-[1,2]dithioles we used T. cruzi, Tulahuen 2 strain (discrete typing unit, DTU, TcVI [18]) in the epimastigote form. […] To establish the selectivity of the compounds against the parasite, unspecific cytotoxicity against mammalian cells (J774.1 murine macrophages) was studied for the most relevant derivatives. The selectivity indexes (SI) were also determined (Table 1).
J774.1 murine macrophage cells (ATCC, Manassas, VA, USA) were grown in DMEM culture milieu containing 4 mM L-glutamine and supplemented with 10% heat-inactivated fetal calf serum. […] Afterwards, cells were exposed for 48 h to the compounds (25–400 μM) or vehicle for control (0.4% DMSO), and additional controls (cells in medium) were used in each test. Cell viability was then assessed by measuring the mitochondria-dependent reduction of MTT (3-(4,5-dimethylthiazol-2-yl)-2,5-diphenyltetrazolium bromide) to formazan. For this purpose, MTT in sterile PBS (0.2% glucose) pH 7.4 was added to the macrophages to achieve a final concentration of 0.1 mg/mL and the cells were incubated at 37 °C for 3 h. After removing the medium, formazan crystals were dissolved in 180 μL of DMSO and 20 μL of MTT buffer (0.1 M glycine, 0.1 M NaCl, 0.5 mM EDTA, pH 10.5) and the absorbance at 560 nm was measured. The IC50 was defined as the drug concentration at which 50% of the cells were viable, relative to the control (no drug added), and was determined by analysis using OriginLab8.5® sigmoidal regression (% of viable cells vs. logarithm of the compound concentration). Samples were performed in triplicate.

[2] = target: T1, cruzipain (Trypanosoma cruzi, UniProt P25779); assay: Inhibition of T. cruzi cruzipain (Z-Phe-Arg-AMC fluorogenic substrate); format: biochemical; details: percentage of enzymatic inhibition at 100 μM; read-out: Cruzipain % Inhib100
T1 construct: endogenous in cells; host or cells: T. cruzi epimastigotes, Tulahuen 2 strain
Method: Initially, we tested the dithioles as inhibitors of the protease cruzipain from T. cruzi at a concentration of 100 μM.
Cruzipain was purified to homogeneity from epimastigotes of the Tulahuen 2 strain by ConA-Sepharose affinity chromatography, as previously described. Cruzipain (2.5 μM ε = 58,285 M^−1·cm^−1) was incubated in 50 mM acetate buffer pH 5.5 with 50 mM DTT and 100 μM inhibitor was added, shaking the solution for 15 min at 27 °C. The derivatives were added diluted in DMSO, and the controls contained the same solvent concentration. The concentration of DMSO never exceeded 1% in the reaction medium. E-64 was used as a positive control of inhibition. Then, the fluorogenic substrate Z-Phe-Arg-AMC (100 μM) was added and the fluorescence was measured during 10 min at intervals of 3 s (excitation at 350 nm and emission at 460 nm) using a Varioskan Flash Spectrophotometer. From the slope of the negative control, we calculated the total (100%) enzyme activity, while the slopes obtained in the presence of the compounds yielded the percentage of remaining enzyme activity. The percentage of enzyme inhibition was determined as […]. The experiments were done in duplicate.

[3] = target: T2, Trypanosoma cruzi triosephosphate isomerase (TcTIM) (Trypanosoma cruzi, UniProt P52270); assay: Inhibition of enzymatic activity of TcTIM; format: biochemical
T2 construct: made in house; host or cells: Escherichia coli
Method: In order to investigate if the 3H-[1,2]dithioles inhibit TcTIM, we initially tested the inhibitory capacity of the compounds at a concentration of 200 μM and then at 25 μM.
Expression and purification of protein: TcTIM was expressed in Escherichia coli and purified as described in the literature. After purification, the enzyme, dissolved in 100 mM triethanolamine, 10 mM EDTA and 1 mM dithiothreitol (pH 8), was precipitated with ammonium sulfate (75% saturation) and stored at 4 °C. Before use, extensive dialysis against 100 mM triethanolamine/10 mM EDTA (pH 7.4) was performed. Protein concentration was determined by absorbance at 280 nm (ε = 36,440 M^−1·cm^−1).
Enzymatic activity assays. Enzymatic activity was determined following the conversion of glyceraldehyde 3-phosphate into dihydroxyacetone phosphate. The decrease in absorbance at 340 nm was followed in a multicell Cary spectrophotometer at 25 °C. The reaction mixture (1 mL, pH 7.4) contained 100 mM triethanolamine, 10 mM EDTA, 0.2 mM NADH, 1 mM glyceraldehyde 3-phosphate, and 0.9 units of α-glycerol phosphate dehydrogenase. The reaction was initiated by addition of 5 ng/mL of the TcTIM.
For inactivation studies, TcTIM was incubated at a concentration of 5 mg/mL in a buffer containing 100 mM triethanolamine, 10 mM EDTA, pH 7.4 and 10% of DMSO at 36 °C. The mixture also contained the compounds at the indicated concentrations. Compounds were dissolved in DMSO. After 2 h, […] was withdrawn and added to 1 mL of reaction mixture for the activity assay. None of the molecules tested here affected the activity of α-glycerol phosphate dehydrogenase, the enzyme used for trapping the product.
The IC50 value was taken as the concentration of drug needed to reduce the enzymatic activity to 50%. The experiments were performed in triplicate.

T2 sequence (P52270 whole entry): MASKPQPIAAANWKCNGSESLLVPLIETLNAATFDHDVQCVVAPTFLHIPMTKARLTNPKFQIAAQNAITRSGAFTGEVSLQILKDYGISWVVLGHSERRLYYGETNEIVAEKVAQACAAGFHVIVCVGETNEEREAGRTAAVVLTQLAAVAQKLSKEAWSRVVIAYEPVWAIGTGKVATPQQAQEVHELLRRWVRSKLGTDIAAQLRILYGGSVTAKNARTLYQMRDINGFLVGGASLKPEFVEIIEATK
T1 sequence (P25779 123-467): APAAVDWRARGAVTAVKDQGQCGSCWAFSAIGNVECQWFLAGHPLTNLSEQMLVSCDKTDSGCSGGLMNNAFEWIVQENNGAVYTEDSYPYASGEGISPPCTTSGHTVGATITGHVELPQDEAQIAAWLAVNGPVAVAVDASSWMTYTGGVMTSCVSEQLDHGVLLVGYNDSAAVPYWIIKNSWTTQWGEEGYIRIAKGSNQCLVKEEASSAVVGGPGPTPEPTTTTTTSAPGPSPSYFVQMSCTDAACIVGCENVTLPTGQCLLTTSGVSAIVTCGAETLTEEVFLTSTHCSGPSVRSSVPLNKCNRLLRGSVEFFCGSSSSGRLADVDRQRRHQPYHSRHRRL

CC(=O)COc1ccc(C2=C/C(=C(\SCC(C)=O)C(C)=O)SS2)cc1 [Derivative 2]
IC50 [1]: 24 ± 1 µM | inhibition at 100 µM [2]: 91.3 ± 2.8% | inhibition at 25 µM ([3]; percentage of enzymatic inhibition at 25 μM, read-out: TcTIM % Inhib25): 48 ± 4% | inhibition at 200 µM ([3]; percentage of enzymatic inhibition at 200 μM, read-out: TcTIM % Inhib200): 72%
